According to ChEMBL document CHEMBL4808186, “Structure-Based Discovery of Pyrimidine Aminobenzene Derivatives as Potent Oral Reversal Agents against P-gp- and BCRP-Mediated Multidrug Resistance” (J Med Chem, 2021):
Activity calls are given as the source filed them. No cut-off for these calls is given here.

Columns and labels:
[1] = system: MDCK-II; experiment: cells; conditions: Canis lupus familiaris, 48 h
Description: Cytotoxicity against MDCK-II cells incubated for 48 hrs by MTT assay

[2] = system: K562; experiment: Cytotoxicity against human K562 cells incubated for 48 hrs by MTT assay; type: functional, cell-based; conditions: K562, 48 h
[3] = system: K562/A02; experiment: Cytotoxicity against P-gp overexpressing human K562/A02 cells incubated for 48 hrs by MTT assay; type: functional, cell-based; conditions: K562/A02, 48 h, read-out: IC50
[4] = system: MDCK-II; experiment: cells; conditions: Canis lupus familiaris, 48 h; remark: listed apart in the source
Description: Cytotoxicity against BCRP-overexpressing MDCK-II cells incubated for 48 hrs by MTT assay

[5] = n-Octanol/water partition coefficient, logP of the compound by UHPLC analysis; type: physicochemical
[6] = system: K562/A02; experiment: Potentiation of adriamycin-induced apoptosis in human K562/A02 cells assessed as viable cells at 0.5 uM incubated for 48 hrs in presence of 10 uM adriamycin by Annexin-V/FITC-based flow cytometry (reference value: 96.5%); type: functional; conditions: read-out: Activity
[7] = system: K562/A02; experiment: Potentiation of adriamycin-induced apoptosis in human K562/A02 cells assessed as early apoptotic cells at 0.5 uM incubated for 48 hrs in presence of 10 uM adriamycin by Annexin-V/FITC-based flow cytometry (reference value: 2.9%); type: functional
[8] = molecular target: T1, ATP-dependent translocase ABCB1 (Homo sapiens, UniProt P08183); experiment: Inhibition of P-gp-mediated multidrug resistance in human K562/A02 cells assessed as Adriamycin accumulation pretreated 1 hr followed by treated with adriamycin measured after 180 mins by flow cytometry; type: cell-based; conditions: k562/a02, 4 h, time 240 min
[9] = Toxicity in BALB/c mouse xenografted with human K562/A02 cells assessed as degeneration and necrosis of kidney tissue at 4 mg/kg, iv once every 2 days for 14 days in presence of 2 mg/kg adriamycin by HE staining; type: organism-based; conditions: in vivo, 48 h, time 2 day
[10] = molecular target: T1, ATP-dependent translocase ABCB1; experiment: Inhibition of P-gp-mediated multidrug resistance in human K562/A02 cells assessed as suppression of Rh123 efflux at 10 uM treated after 90 mins of Rh123 treatment measure up to 120 mins by flow cytometry; type: cell-based; conditions: k562/a02, 10 µM
[11] = system: K562/A02; experiment: Potentiation of adriamycin-induced apoptosis in human K562/A02 cells assessed as late apoptotic cells at 10 uM incubated for 48 hrs in presence of 10 uM adriamycin by Annexin-V/FITC-based flow cytometry (reference value: 0.4%); type: functional
[12] = Toxicity in BALB/c mouse xenografted with human K562/A02 cells assessed as degeneration and necrosis of liver tissue at 4 mg/kg, iv once every 2 days for 14 days in presence of 2 mg/kg adriamycin by HE staining; type: organism-based; conditions: in vivo, 48 h, time 2 day
[13] = system: K562/A02; experiment: Antitumor activity against human K562/A02 cells xenografted in BALB/c mouse assessed as degeneration and necrosis of tumor tissue at 4 mg/kg, iv single dose in presence of 2 mg/kg adriamycin by HE staining; type: functional, organism-based
[14] = system: K562/A02; experiment: Potentiation of adriamycin-induced apoptosis in human K562/A02 cells assessed as late apoptotic cells at 0.5 uM incubated for 48 hrs in presence of 10 uM adriamycin by Annexin-V/FITC-based flow cytometry (reference value: 0.4%); type: functional
[15] = system: K562/A02; experiment: Potentiation of adriamycin-induced apoptosis in human K562/A02 cells assessed as early apoptotic cells at 5 uM incubated for 48 hrs in presence of 10 uM adriamycin by Annexin-V/FITC-based flow cytometry (reference value: 2.9%); type: functional
[16] = system: K562/A02; experiment: Potentiation of adriamycin-induced apoptosis in human K562/A02 cells assessed as necrotic cells at 0.5 uM incubated for 48 hrs in presence of 10 uM adriamycin by Annexin-V/FITC-based flow cytometry (reference value: 0.3%); type: functional
[17] = system: K562/A02; experiment: Potentiation of adriamycin-induced apoptosis in human K562/A02 cells assessed as early apoptotic cells at 10 uM incubated for 48 hrs in presence of 10 uM adriamycin by Annexin-V/FITC-based flow cytometry (reference value: 2.9%); type: functional
[18] = system: K562/A02; experiment: Potentiation of adriamycin-induced apoptosis in human K562/A02 cells assessed as necrotic cells at 10 uM incubated for 48 hrs in presence of 10 uM adriamycin by Annexin-V/FITC-based flow cytometry (reference value: 0.3%); type: functional
[19] = system: K562/A02; experiment: Potentiation of adriamycin-induced apoptosis in human K562/A02 cells assessed as necrotic cells at 5 uM incubated for 48 hrs in presence of 10 uM adriamycin by Annexin-V/FITC-based flow cytometry (reference value: 0.3%); type: functional
[20] = system: MDCK-II; experiment: Effect on BCRP expression in MDCK-II cells at 1 to 10 uM incubated for 48 hrs by Western blot analysis; type: functional, cell-based; conditions: Canis lupus familiaris, dose 1-10 µM
[21] = system: MDCK-II; experiment: Inhibition of BCRP-mediated multidrug resistance in MDCK-II cells assessed as mitoxantrone accumulation at 0.1 to 5 uM pretreated 1 hr followed by treated with mitoxantrone measured after 180 mins by flow cytometry; type: cell-based; conditions: Canis lupus familiaris, dose 0.1-5 µM, time 240.0 min
[22] = system: K562/A02; experiment: Potentiation of adriamycin-induced apoptosis in human K562/A02 cells assessed as viable cells at 10 uM incubated for 48 hrs in presence of 10 uM adriamycin by Annexin-V/FITC-based flow cytometry (reference value: 96.5%); type: functional; conditions: read-out: Activity
[23] = system: K562/A02; experiment: Effect on P-gp expression in human K562/A02 cells at 1 to 10 uM incubated for 48 hrs by Western blot analysis; type: functional, cell-based; conditions: dose 1-10 µM
[24] = system: K562/A02; experiment: Antitumor activity against human K562/A02 cells xenografted in BALB/c mouse assessed as reduction in tumor size at 4 mg/kg, iv once every 2 days for 14 days in presence of 2 mg/kg adriamycin; type: functional, organism-based; conditions: time 2.0 day
[25] = system: MDCK-II; experiment: Inhibition of BCRP-mediated multidrug resistance in MDCK-II cells assessed as mitoxantrone accumulation […] pretreated 1 hr followed by treated with mitoxantrone measured after 180 mins by fluorescence microscopy; type: cell-based; conditions: Canis lupus familiaris, time 240.0 min
[26] = system: K562/A02; experiment: Antitumor activity against human K562/A02 cells xenografted in BALB/c mouse assessed as reduction in tumor volume at 4 mg/kg, iv once every 2 days for 14 days in presence of 2 mg/kg adriamycin; type: functional, organism-based; conditions: time 2.0 day
[27] = molecular target: T1, ATP-dependent translocase ABCB1; experiment: Inhibition of P-gp-mediated multidrug resistance in human K562/A02 cells assessed as Adriamycin accumulation at 1 to 10 uM pretreated 1 hr followed by treated with adriamycin measured after 180 mins by fluorescence microscopy; type: cell-based; conditions: k562/a02, 4 h, dose 1-10 µM, time 240 min
[28] = system: K562/A02; experiment: Potentiation of adriamycin-induced apoptosis in human K562/A02 cells assessed as late apoptotic cells at 5 uM incubated for 48 hrs in presence of 10 uM adriamycin by Annexin-V/FITC-based flow cytometry (reference value: 0.4%); type: functional
[29] = system: K562/A02; experiment: Potentiation of adriamycin-induced apoptosis in human K562/A02 cells assessed as viable cells at 5 uM incubated for 48 hrs in presence of 10 uM adriamycin by Annexin-V/FITC-based flow cytometry (reference value: 96.5%); type: functional; conditions: read-out: Activity
[30] = system: K562/A02; experiment: Antitumor activity against human K562/A02 cells xenografted in BALB/c mouse assessed as reduction in tumor weight at 4 mg/kg, iv once every 2 days for 14 days in presence of 2 mg/kg adriamycin; type: functional, organism-based; conditions: time 2.0 day

T1 sequence (P08183 whole entry): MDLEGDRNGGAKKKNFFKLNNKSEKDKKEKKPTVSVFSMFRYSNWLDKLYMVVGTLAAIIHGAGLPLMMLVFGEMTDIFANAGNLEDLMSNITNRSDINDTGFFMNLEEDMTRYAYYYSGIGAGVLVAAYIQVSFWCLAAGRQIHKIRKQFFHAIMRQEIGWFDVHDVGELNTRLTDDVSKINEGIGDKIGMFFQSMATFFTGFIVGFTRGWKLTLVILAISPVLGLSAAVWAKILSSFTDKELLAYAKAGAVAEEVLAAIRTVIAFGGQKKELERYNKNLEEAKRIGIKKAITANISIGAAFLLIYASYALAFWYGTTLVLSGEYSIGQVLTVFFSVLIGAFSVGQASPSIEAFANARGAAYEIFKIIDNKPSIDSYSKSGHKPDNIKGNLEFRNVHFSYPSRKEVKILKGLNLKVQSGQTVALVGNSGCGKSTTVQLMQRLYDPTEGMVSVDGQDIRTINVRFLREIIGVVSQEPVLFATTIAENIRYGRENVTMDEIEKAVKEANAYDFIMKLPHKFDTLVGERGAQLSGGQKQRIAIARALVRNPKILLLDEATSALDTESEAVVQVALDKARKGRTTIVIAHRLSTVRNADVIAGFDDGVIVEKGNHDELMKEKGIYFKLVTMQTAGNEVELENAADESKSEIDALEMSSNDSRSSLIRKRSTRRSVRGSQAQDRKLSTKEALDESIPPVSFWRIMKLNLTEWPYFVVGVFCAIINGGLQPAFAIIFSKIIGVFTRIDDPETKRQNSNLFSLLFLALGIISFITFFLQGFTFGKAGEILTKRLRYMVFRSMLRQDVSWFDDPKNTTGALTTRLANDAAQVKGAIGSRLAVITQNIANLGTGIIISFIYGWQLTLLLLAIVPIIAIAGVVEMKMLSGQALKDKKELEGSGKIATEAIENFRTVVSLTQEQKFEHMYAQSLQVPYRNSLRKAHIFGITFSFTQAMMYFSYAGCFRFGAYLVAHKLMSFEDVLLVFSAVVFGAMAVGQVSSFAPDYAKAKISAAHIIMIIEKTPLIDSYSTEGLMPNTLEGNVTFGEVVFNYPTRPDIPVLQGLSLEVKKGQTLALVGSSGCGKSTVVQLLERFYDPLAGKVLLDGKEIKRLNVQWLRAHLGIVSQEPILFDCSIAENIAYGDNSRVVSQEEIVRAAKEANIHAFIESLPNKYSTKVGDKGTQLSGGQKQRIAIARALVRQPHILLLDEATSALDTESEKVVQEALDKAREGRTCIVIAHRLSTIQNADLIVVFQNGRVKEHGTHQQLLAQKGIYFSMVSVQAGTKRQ

Question: With `COc1cc2c(cc1OC)CN(CCc1ccc(NC(=O)c3cc(=O)c4ccc(C)cc4o3)cc1)CC2` as the molecule, how does the IC50 [1] read?
Answer: The IC50 was greater than 100 µM.

Question: And the IC50 [2]?
Answer: The IC50 was greater than 100 µM.

Question: What about the IC50 [3] of the same molecule?
Answer: Its IC50 is greater than 100 µM.

Question: And the IC50 [4]?
Answer: Its IC50 is 88.7 µM.

Question: And the logP [5]?
Answer: Its logP is 1.87.

Question: For `COc1cc2c(cc1OC)CN(CCc1ccc(NC(=O)c3ccc(C)c(Nc4nccc(-c5cccnc5)n4)c3)cc1)CC2`, which IC50 [1] is on record?
Answer: The IC50 was greater than 100 µM.

Question: And the IC50 [2]?
Answer: Its IC50 is greater than 100 µM.

Question: What about the IC50 [3] of the same molecule?
Answer: The IC50 was 60.4 µM.

Question: And the IC50 [4]?
Answer: Its IC50 is greater than 100 µM.

Question: What about the logP [5] of the same molecule?
Answer: Its logP is 1.86.

Question: For `COc1cc2c(cc1OC)CN(CCNC(=O)c1ccc(C)c(Nc3nccc(-c4ccco4)n3)c1)CC2`, which viability at 0.5 µM [6] is on record?
Answer: Its viability at 0.5 µM is 84.8%.

Question: What about the Activity [7] of the same molecule?
Answer: The Activity was 10.9%.

Question: And the Activity [8]?
Answer: Its Activity is “Dose-Dependent Effect”.

Question: And the Activity [9]?
Answer: Its Activity is “Non-Toxic”.

Question: And the Activity [10]?
Answer: The Activity was “Active”.

Question: And the Activity [11]?
Answer: Its Activity is 9.8%.

Question: What about the Activity [12] of the same molecule?
Answer: Its Activity is “Non-Toxic”.

Question: And the Activity [13]?
Answer: The Activity was “Active”.

Question: And the IC50 [1]?
Answer: The IC50 was greater than 100 µM.

Question: What about the Activity [14] of the same molecule?
Answer: The Activity was 3.2%.

Question: And the Activity [15]?
Answer: The Activity was 12.3%.

Question: What about the Activity [16] of the same molecule?
Answer: The Activity was 1.1%.

Question: And the Activity [17]?
Answer: The Activity was 19.3%.

Question: What about the Activity [18] of the same molecule?
Answer: Its Activity is 2.5%.

Question: What about the Activity [19] of the same molecule?
Answer: Its Activity is 2.4%.

Question: What about the Activity [20] of the same molecule?
Answer: Its Activity is “inactive”.

Question: And the Activity [21]?
Answer: Its Activity is “Active”.

Question: And the IC50 [2]?
Answer: Its IC50 is greater than 100 µM.

Question: What about the viability at 10 µM [22] of the same molecule?
Answer: Its viability at 10 µM is 68.3%.

Question: What about the Activity [23] of the same molecule?
Answer: The Activity was “inactive”.

Question: And the Activity [24]?
Answer: Its Activity is “Active”.

Question: What about the Activity [25] of the same molecule?
Answer: The Activity was “Active”.

Question: And the Activity [26]?
Answer: Its Activity is “Active”.

Question: What about the Activity [27] of the same molecule?
Answer: Its Activity is “Active”.

Question: And the Activity [28]?
Answer: Its Activity is 9.2%.

Question: What about the IC50 [3] of the same molecule?
Answer: Its IC50 is greater than 100 µM.

Question: What about the viability at 5 µM [29] of the same molecule?
Answer: The viability at 5 µM was 76.2%.

Question: What about the IC50 [4] of the same molecule?
Answer: Its IC50 is greater than 100 µM.

Question: What about the logP [5] of the same molecule?
Answer: Its logP is 2.13.

Question: What about the Activity [30] of the same molecule?
Answer: The Activity was “Active”.
